Test results: paper PMC12035805, “A Water-Soluble Aggregation-Induced Emission Photosensitizer with Intrinsic Antibacterial Activity as an Antiplanktonic and Antibiofilm Therapeutic Agent” (Journal of Medicinal Chemistry, 2025)
Where two headings read alike, the source gives them in different places.

Key:
[1] = system: planktonic S. aureus; test: Photodynamic eradication of planktonic bacteria; assay type: cell-based, Staphylococcus aureus; settings: 2 μM, 600 nm (60 mW/cm^2)
Description: For planktonic bacteria, an overnight culture of S. aureus or P. aeruginosa was diluted 100 times in TSB and grown to OD = 1. The bacteria cultures were then diluted to […] in PBS. TPA-1 (2 μM) was added to the diluted cultures and incubated under darkness for 20 min at 30 °C. Bacterial cultures of 200 μL were transferred to the wells of a 96-well plate. The plate was irradiated by 600 nm light (60 mW/cm^2) for 30 and 45 min. Then, the bacterial cultures were serially diluted, and the number of viable bacteria was counted using the plate counting method.

[2] = system: S. aureus (ATCC 29213); test: MIC assay (broth microdilution, CLSI), without light; assay type: cell-based; settings: Staphylococcus aureus, ATCC29213, light or radiation study; read-out: MIC against ATCC 29213 Staphylococcus aureus without light irradiation
Description: (§1) The MIC assays of TPA-1 were conducted according to the broth microdilution methods described in the Clinical and Laboratory Standards Institute (CLSI) standard. A single colony of S. aureus (ATCC 29213), methicillin-resistant S. aureus (BAA 41), or P. aeruginosa (ATCC 27853) on an LB agar plate was picked and suspended in Mueller–Hinton Broth (MHB). The bacterial culture was grown overnight at 37 °C. The next day, the bacteria culture was diluted 100 times in fresh MHB and grown to the mid log phase. Bacteria in the mid log phase were further diluted to 5 × 10^6 CFU/mL in cation-adjusted MHB (S. aureus) or MHB (P. aeruginosa). Ten μL of the diluted bacteria were added to a 96-well plate containing 90 μL of serial diluted TPA-1 in the corresponding medium. The plate was incubated overnight at 37 °C. The MICs of the TPA compounds were the concentrations at which no apparent bacteria were observed by the naked eye. Different concentrations of LTA were also added to examine the change in MIC values of TPA-1 against S. aureus. The experiments were conducted in triplicate.

[3] = system: P. aeruginosa (ATCC 27853); test: as above; assay type: cell-based; settings: Pseudomonas aeruginosa, ATCC27853, light or radiation study
Description: as §1

[4] = system: methicillin-resistant S. aureus (BAA 41); test: as above; assay type: cell-based; settings: Staphylococcus aureus
Description: as §1

[5] = Cytotoxicity (MTT) assay against HFF-1 cells; assay type: cell-based; settings: human, no irradiation, read-out: 50% cytotoxicity concentration (CC50) against HFF-1 cells
Description: The cytotoxicity of TPA-1, TPA-0, and TPA-NC-1 against HFF-1 cells was evaluated using the 3-(4,5-dimethylthiazol-2-yl)-2,5-diphenyltetrazolium bromide (MTT) assay kit from ThermoFisher Scientific. In general, HFF-1 cells (MEM, 10% FBS, and 1% penicillin-streptomycin) were seeded in a 96-well plate with a density of 3000 cells/well overnight at 37 °C with 5% CO2. Then, the cells were treated with different concentrations of compounds for 24 h. MTT (10 μL, 5 mg/mL) was added to the medium, and the cells were further incubated for 3 h. The medium was then replaced by DMSO (100 μL). After gently shaking the plate for 30 s, the optical density of the solutions at 570 nm was measured by a BMG Labtech CLARIOstar microplate reader. The cell viability was calculated as (ODcompound – ODDMSO)/(ODmedium - ODDMSO) × 100% where ODcompound, ODmedium, and ODDMSO are the optical densities of the treated cell, nontreated cells, and DMSO at 570 nm, respectively. The experiment was conducted in triplicate. The CC50 values were calculated using GraphPad Prism 8.

[6] = Light toxicity on HFF-1 cells (MTT after PDT); assay type: cell-based; settings: human, 600 nm light irradiation for 45 min
Description: HFF-1 cells were seeded in a 96-well plate with a density of 10,000 cells/well for 12 h at 37 °C in darkness. Different concentrations of TPA-1 were added to the cell culture medium and incubated for 20 min at 37 °C in darkness. The cells were then incubated in the dark or irradiated by 600 nm light for 45 min. The cell viability was then evaluated using the MTT assay, which was described in the cytotoxicity assay.

[7] = biological target: T1, S. aureus DNA gyrase (Staphylococcus aureus, UniProt P0A0K8+P20831); test: S. aureus DNA gyrase supercoiling inhibition assay; assay type: biochemical; settings: relaxed pBR322, 37 °C, 30 min, agarose gel
T1 construct: purchased Inspiralis
Description: The assay was conducted using an S. aureus gyrase supercoiling assay kit from Inspiralis. In general, relaxed bacterial plasmid (pBR322), S. aureus gyrase, and different concentrations of TPA-1 were mixed and incubated at 37 °C for 30 min. The mixtures were then quenched and subjected to electrophoresis (1% agarose gel, 75 V, 2 h). The gel image was captured with the Bio-Rad ChemiDoc imaging system.

[8] = system: human erythrocytes; test: Hemolysis of human erythrocytes; assay type: cell-based
Description: (§2) The human erythrocyte concentrate was prepared according to the kit manual from the Biomaterial Hemolytic Assay Kit (Hemoscan). After the human erythrocytes had been washed and diluted with manufacture buffer, 100 μL of erythrocytes (10%) were added into 100 μL of various concentrations of compounds in PBS. 1% of Triton X (1%) was the positive control, while PBS was the negative control. The erythrocytes were then gently mixed with the TPA compounds and further incubated for an hour at 37 °C. After that, the erythrocytes were centrifuged (1000 rpm, 5 min), and 20 μL of supernatant was added to 180 μL of PBS in a 96-well plate. The optical density at 380, 415, and 450 nm was measured by a plate reader. The final OD value of the compounds was calculated as (2 × OD415) – (OD450 + OD380) where OD380, OD415, and OD450 are the optical density of the solution at 380, 415, and 450 nm, respectively. The hemolysis rates of the compounds were calculated as (ODcompound – ODPBS)/(ODTritonX – ODPBS) × 100% where ODcompound, ODPBS, and ODTritonX are the final OD values of the erythrocytes mixed with TPA compounds, PBS, and 1% Triton X, respectively. The experiment was performed in triplicate.

[9] = Hemolysis of human erythrocytes; assay type: cell-based; settings: 200 μM compound, 1 h, 37 °C
Description: as §2

T1 sequence (P20831 whole entry): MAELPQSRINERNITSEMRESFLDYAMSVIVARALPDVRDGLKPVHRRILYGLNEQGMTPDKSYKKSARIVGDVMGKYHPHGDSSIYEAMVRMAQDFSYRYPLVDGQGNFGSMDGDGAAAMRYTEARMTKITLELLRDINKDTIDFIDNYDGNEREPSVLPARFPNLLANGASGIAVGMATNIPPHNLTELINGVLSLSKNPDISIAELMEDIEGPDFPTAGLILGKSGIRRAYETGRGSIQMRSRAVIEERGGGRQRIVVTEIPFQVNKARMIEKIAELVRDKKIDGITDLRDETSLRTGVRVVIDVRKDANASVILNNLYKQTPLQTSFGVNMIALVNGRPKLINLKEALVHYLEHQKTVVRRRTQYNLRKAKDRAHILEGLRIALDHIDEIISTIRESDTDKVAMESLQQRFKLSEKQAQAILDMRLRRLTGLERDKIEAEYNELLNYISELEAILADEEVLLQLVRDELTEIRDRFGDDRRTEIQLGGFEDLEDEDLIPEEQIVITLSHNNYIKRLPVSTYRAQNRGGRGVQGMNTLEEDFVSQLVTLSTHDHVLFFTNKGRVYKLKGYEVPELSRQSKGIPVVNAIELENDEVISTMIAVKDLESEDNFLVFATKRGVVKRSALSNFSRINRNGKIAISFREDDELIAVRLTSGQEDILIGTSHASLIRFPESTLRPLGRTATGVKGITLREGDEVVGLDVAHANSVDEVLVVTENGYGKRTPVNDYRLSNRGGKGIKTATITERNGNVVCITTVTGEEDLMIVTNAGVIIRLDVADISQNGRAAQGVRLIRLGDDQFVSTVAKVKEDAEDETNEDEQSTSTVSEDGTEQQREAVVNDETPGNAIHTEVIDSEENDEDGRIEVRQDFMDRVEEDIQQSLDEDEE
T1 sequence (P0A0K8 whole entry): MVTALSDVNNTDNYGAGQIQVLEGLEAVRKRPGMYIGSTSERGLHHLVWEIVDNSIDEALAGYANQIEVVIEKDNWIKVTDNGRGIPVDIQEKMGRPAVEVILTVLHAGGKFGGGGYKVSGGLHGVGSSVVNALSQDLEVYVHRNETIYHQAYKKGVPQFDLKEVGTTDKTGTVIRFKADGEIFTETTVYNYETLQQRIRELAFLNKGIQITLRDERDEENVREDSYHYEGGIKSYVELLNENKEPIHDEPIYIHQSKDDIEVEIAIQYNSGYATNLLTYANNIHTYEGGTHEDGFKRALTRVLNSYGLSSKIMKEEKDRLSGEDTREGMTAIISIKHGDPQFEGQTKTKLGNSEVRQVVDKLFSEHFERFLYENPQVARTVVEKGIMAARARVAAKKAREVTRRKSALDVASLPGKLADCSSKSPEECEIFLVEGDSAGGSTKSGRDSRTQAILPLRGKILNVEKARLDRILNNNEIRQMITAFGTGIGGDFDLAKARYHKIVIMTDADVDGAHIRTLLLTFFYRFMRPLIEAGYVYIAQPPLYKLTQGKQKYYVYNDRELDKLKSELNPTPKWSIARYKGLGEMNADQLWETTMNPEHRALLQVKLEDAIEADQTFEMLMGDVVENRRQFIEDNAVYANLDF

In the case of `C#CCC[n+]1c(/C=C/c2ccc(-c3ccc(N(c4ccc(OCCC[N+](C)(C)C)cc4)c4ccc(OCCC[N+](C)(C)C)cc4)cc3)s2)sc2ccccc21.[Br-].[Br-].[Br-]` [TPA-1], the “planktonic S. aureus eradicated” value ([1]; 30 min) is reported as 99.2% ± 0.7%, the “planktonic S. aureus log CFU/mL reduction” value ([1]; 30 min) is reported as 2.2 ± 0.4 log CFU/mL and the “planktonic S. aureus eradicated” value ([1]; 45 min) is reported as over 99.99%. For the same molecule, the “planktonic S. aureus log CFU/mL reduction” value ([1]; 45 min) was over 5 log CFU/mL, the MIC [2] was 3.12 µM and the MIC ([3]; read-out: MIC against ATCC 27853 Pseudomonas aeruginosa without light irradiation) was 100 µM. It also gave an MIC ([3]; without light irradiation, read-out: MIC against P. aeruginosa (ATCC 27853)) of over 100 µM, an MIC ([4]; ATCC BAA-41 / BAA-41, light or radiation study, read-out: MIC against ATCC BAA41 Methicillin-resistant Staphylococcus aureus without light irradiation) of 3.12 µM and an MIC ([4]; BAA41, light or radiation study, read-out: MIC against methicillin-resistant S. aureus (BAA 41)) of 3.12 µM. For the same molecule, the CC50 at 24 h [5] was 260 ± 40 µM, the viability at 45 min, 40 µM [6] was over 90% and the “concentration at which the supercoiled DNA band completely disappears” value [7] was 25 µM. The HC50 [8] was over 200 µM and the hemolysis at 1 h, 200 µM [9] was under 2%.
